Results reported in article PMC5104426, “Screening a Phage Display Library for Two Novel OmpU-Binding Peptides with Adhesion Antagonistic Activity against Vibrio mimicus” (PLoS ONE, 2016).
“And” between values parts separate entries of the source, which are not always exact repeats. Equal values may be shown once.

Columns and labels:
[1] = system: V. mimicus 04–14 isolate adhesion to EPC cells; assay: Peptide adhesion inhibition test: V. mimicus adhesion to EPC cells; format: cell-based, Vibrio mimicus; details: 500 μg/mL peptide mixed with equal volume of V. mimicus 04–14 (2 × 10^7 CFU/mL), 1 h 28°C, then 1 h on EPC cells, crystal violet, 30 cells counted, mean ± SD, triplicate
Experimental: When EPC cells grown in 24-well plate containing coverslips formed a confluent monolayer, the medium was changed to RPMI-1640 medium without serum and antibiotics for 2 h. Subsequently, 500 μg/mL of each OmpU-binding peptide or unrelated control peptide solution were respectively mixed with an equal volume of V. mimicus isolate 04–14 suspension (2 × 10^7 CFU/mL) and incubated for 1 h at 28°C. The mixture was added to each well, and then the plates were incubated for 1 h at 28°C. After 3 times washes, EPC cells were fixed with cooled methanol for 10 min, stained with crystal violet and examined under a light microscope at a magnification of ×1,000. Thirty cells were randomly selected to count the number of adhering bacterial per slide. Each experiment was performed in triplicate, with each sample being repeated in 3 cell wells.

V. mimicus 04–14 isolate = assay: Protective effects on grass carps challenged with V. mimicus; format: in vivo, Vibrio mimicus; details: for Mortality rate / Survival rate: n = 10, 7 days; for No. of dead fish post challenge, 2d: n = 10, day 2; for No. of dead fish post challenge, 3d: n = 10, day 3; for No. of dead fish post challenge, 4d: n = 10, day 4; for No. of dead fish post challenge, 5d: n = 10, day 5; for No. of dead fish post challenge, 6d: n = 10, day 6; for No. of dead fish post challenge, 7d: n = 10, day 7; for No. of dead fish: n = 10, total over 7 days; for No. of dead fish post challenge, 1d: n = 10, day 1
Experimental: Healthy grass carps weighting 50–52 g were purchased from a commercial fish farm in Anhui province of China, and then were maintained in a flow-through water system at a temperature of 25 ± 1°C and fed commercial pellets on a daily basis. After 14 days when grass carps were confirmed to be healthy, the water temperature was increased to 28 ± 1°C slowly, and the experiment began.
The experimental grass carps were randomly divided into 9 groups (named A-I group, n = 10 in each group). Groups A-C were injected intraperitoneally with P1 at a dose of 10 mg/kg/d, 20 mg/kg/d and 30 mg/kg/d, respectively; Groups D-F were given the same dosages of P2, respectively; Group G was given with 30 mg/kg/d of unrelated control peptide. After 3 days of continuous peptides injection, each fish in groups A-G was challenged intraperitoneally with 200 μL PBS containing 6 × 10^6 cells of V.mimicus 04–14 isolate (equal to the minimal lethal dose determined by preliminary test), respectively. Group H (infection control group) was only inoculated with 04–14 isolate at the minimal lethal dose; Group I (negative control group) was only inoculated with 0.65% sterile saline. Survival of the fish was monitored every 12 h for 7 days post-challenge. At the end of the 7 day observation period, all surviving fish were euthanized in a solution of 200 mg/L of MS-222 followed by a blow to the head.
The survival experiment was performed in accordance with the practices reported in recent studies on antibacterial efficacy of peptides in vivo, protective efficacy of vaccine and bacterial virulence. Death was used as an endpoint in these studies (with no indication of use of humane euthanasia). In animal toxicity and efficacy assays of the adhesion antagonistic peptides, we used death as the endpoint as early, reliable and unbiased biomarkers that can be used as indicators of disease severity are lacking. There is difficulty in reliably differentiating fish that will die from those which will recover, despite showing clinical signs precluding use of humane euthanasia. In addition, interpretation of clinical signs can itself be subjective in the absence of quantifiable indicators of disease severity. For these reasons, the ethical committee of Anhui Agricultural University has assessed the possibility of deaths in the animal toxicity and efficacy assays and also allowed probably unavoidable animal deaths.

[2] = 10 mg/kg/d i.p. for 3 days before challenge
[3] = 10 mg/kg/d i.p. for 3 days before i.p. challenge with 6 × 10^6 cells
[4] = 20 mg/kg/d i.p. for 3 days before challenge
[5] = 30 mg/kg/d i.p. for 3 days before challenge

| Sequence | average number of adhesion around each cell [1] | Mortality rate (V. mimicus 04–14 isolate; [2]) | Survival rate (V. mimicus 04–14 isolate; [2]) | No. of dead fish post challenge, 2d (V. mimicus 04–14 isolate; [2]) | No. of dead fish post challenge, 3d (V. mimicus 04–14 isolate; [2]) | No. of dead fish post challenge, 4d (V. mimicus 04–14 isolate; [2]) | No. of dead fish post challenge, 5d (V. mimicus 04–14 isolate; [2]) | No. of dead fish post challenge, 6d (V. mimicus 04–14 isolate; [2]) | No. of dead fish post challenge, 7d (V. mimicus 04–14 isolate; [2]) | No. of dead fish (V. mimicus 04–14 isolate; [2]) | No. of dead fish post challenge, 1d (V. mimicus 04–14 isolate; [3]) | Mortality rate (V. mimicus 04–14 isolate; [4]) | Survival rate (V. mimicus 04–14 isolate; [4]) | No. of dead fish post challenge, 1d (V. mimicus 04–14 isolate; [4]) | No. of dead fish post challenge, 2d (V. mimicus 04–14 isolate; [4]) | No. of dead fish post challenge, 3d (V. mimicus 04–14 isolate; [4]) | No. of dead fish post challenge, 4d (V. mimicus 04–14 isolate; [4]) | No. of dead fish post challenge, 5d (V. mimicus 04–14 isolate; [4]) | No. of dead fish post challenge, 6d (V. mimicus 04–14 isolate; [4]) | No. of dead fish post challenge, 7d (V. mimicus 04–14 isolate; [4]) | other results |
| --- | --- | --- | --- | --- | --- | --- | --- | --- | --- | --- | --- | --- | --- | --- | --- | --- | --- | --- | --- | --- | --- |
| SCTSPHCFMWLP [P2, adhesion antagonistic peptide] | 3.4 ± 0.8 | 80% | 20% | 4 | 3 | 1 | 0 | 0 | 0 | 8 | 0 | 60% | 40% | 0 | 2 | 3 | 1 | 0 | 0 | 0 | No. of dead fish (V. mimicus 04–14 isolate; [4]): 6; Mortality rate (V. mimicus 04–14 isolate; [5]): 40%; Survival rate (V. mimicus 04–14 isolate; [5]): 60%; No. of dead fish post challenge, 1d (V. mimicus 04–14 isolate; [5]): 0; No. of dead fish post challenge, 2d (V. mimicus 04–14 isolate; [5]): 2; No. of dead fish post challenge, 3d (V. mimicus 04–14 isolate; [5]): 2; No. of dead fish post challenge, 4d (V. mimicus 04–14 isolate; [5]): 0; No. of dead fish post challenge, 5d (V. mimicus 04–14 isolate; [5]): 0; No. of dead fish post challenge, 6d (V. mimicus 04–14 isolate; [5]): 0; No. of dead fish post challenge, 7d (V. mimicus 04–14 isolate; [5]): 0; No. of dead fish (V. mimicus 04–14 isolate; [5]): 4 |
| TWTCSDVICTAR [P1, adhesion antagonistic peptide] | 5.1 ± 0.7 and 5.1 ± 0.6 | 90% | 10% | 5 | 2 | 2 | 0 | 0 | 0 | 9 | 0 | 80% | 20% | 0 | 4 | 2 | 2 | 0 | 0 | 0 | No. of dead fish (V. mimicus 04–14 isolate; [4]): 8; Mortality rate (V. mimicus 04–14 isolate; [5]): 60%; Survival rate (V. mimicus 04–14 isolate; [5]): 40%; No. of dead fish post challenge, 1d (V. mimicus 04–14 isolate; [5]): 0; No. of dead fish post challenge, 2d (V. mimicus 04–14 isolate; [5]): 2; No. of dead fish post challenge, 3d (V. mimicus 04–14 isolate; [5]): 3; No. of dead fish post challenge, 4d (V. mimicus 04–14 isolate; [5]): 1; No. of dead fish post challenge, 5d (V. mimicus 04–14 isolate; [5]): 0; No. of dead fish post challenge, 6d (V. mimicus 04–14 isolate; [5]): 0; No. of dead fish post challenge, 7d (V. mimicus 04–14 isolate; [5]): 0; No. of dead fish (V. mimicus 04–14 isolate; [5]): 6 |
